Results on five molecules are retold here after patent US11427548B2 (Arvinas Operations, Inc., priority 2015, dated 2022).

Where two headings read alike, the source gives them in different places.

This test addresses T1, Androgen Receptor (Homo sapiens, UniProt P10275).
T1 construct: endogenous in cells; host or cells: VCaP cells
T1 sequence (P10275 1-920): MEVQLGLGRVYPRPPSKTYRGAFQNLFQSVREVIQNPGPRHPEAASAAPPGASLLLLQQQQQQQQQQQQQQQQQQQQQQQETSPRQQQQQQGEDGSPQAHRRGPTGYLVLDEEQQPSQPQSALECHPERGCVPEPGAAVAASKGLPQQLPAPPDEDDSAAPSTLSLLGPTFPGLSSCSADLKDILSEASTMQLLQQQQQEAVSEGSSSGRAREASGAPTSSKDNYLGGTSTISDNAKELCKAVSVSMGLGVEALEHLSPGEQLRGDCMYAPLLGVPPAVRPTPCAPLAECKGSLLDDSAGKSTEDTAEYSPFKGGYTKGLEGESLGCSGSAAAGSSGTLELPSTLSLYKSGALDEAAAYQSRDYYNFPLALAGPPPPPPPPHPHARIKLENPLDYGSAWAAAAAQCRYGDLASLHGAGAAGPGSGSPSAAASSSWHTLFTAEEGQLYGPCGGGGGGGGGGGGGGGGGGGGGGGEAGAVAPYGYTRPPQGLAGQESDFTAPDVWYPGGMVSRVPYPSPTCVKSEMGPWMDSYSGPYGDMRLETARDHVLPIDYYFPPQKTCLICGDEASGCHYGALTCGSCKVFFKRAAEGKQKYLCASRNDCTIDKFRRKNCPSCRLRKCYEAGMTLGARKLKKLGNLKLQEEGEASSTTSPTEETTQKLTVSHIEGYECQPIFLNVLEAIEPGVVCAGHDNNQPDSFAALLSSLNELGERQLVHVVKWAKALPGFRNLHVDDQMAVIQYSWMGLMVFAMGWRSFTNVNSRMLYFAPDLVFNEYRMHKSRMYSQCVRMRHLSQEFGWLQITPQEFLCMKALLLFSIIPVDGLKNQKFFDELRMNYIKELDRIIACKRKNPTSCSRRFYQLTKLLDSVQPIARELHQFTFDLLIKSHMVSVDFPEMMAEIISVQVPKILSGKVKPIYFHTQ
The test is described as follows: Androgen Receptor ELISA assay (PathScan AR ELISA) in VCaP cells: AR degradation, Dmax and DC50. The conditions noted are these: for DC50: read-out: VCaP DC50; for Dmax: VCaP. The class given is cell-based. An outline of the steps: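 VCaP cells in phenol red-free RPMI with 5% charcoal-stripped FBS were grown at least 3 days, then given compound as 7 half-log doses in 0.1% DMSO with 0.1 nM R1881 for 24 h. Lysates went into a sandwich AR ELISA with TMB read at 450 nm.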

Setting [1] is: VCaP cells, Table 36, read-out: VCaP Dmax (%).

The term DC50 denotes the concentration giving 50% degradation. A word on the Dmax: it is the greatest extent of degradation seen. For `Cc1ncsc1-c1ccc(CNC(=O)[C@@H]2C[C@@H](O)CN2C(=O)C(NC(=O)COCCN2CCN(c3ccc(C(=O)N[C@H]4C(C)(C)[C@H](Oc5ccc(C#N)c(C(F)(F)F)c5)C4(C)C)cn3)C(=O)C2)C(C)(C)C)cc1` (stereo partly shown) [Example 703], under “VCaP cells, Table 36”, the DC50 is over 501 nM. The Dmax under setting [1] was under 25%.
Consider `Cc1ncsc1-c1ccc(C(NC(=O)[C@@H]2C[C@@H](O)CN2C(=O)C(NC(=O)COCCN2CCN(c3ccc(C(=O)N[C@H]4C(C)(C)[C@H](Oc5ccc(C#N)c(C(F)(F)F)c5)C4(C)C)cn3)CC2)C(C)(C)C)C2COC2)cc1` (stereo partly drawn) [Example 704, N-((1r,3r)-3-(4-cyano-3-(trifluoromethyl)phenoxy)-2,2,4,4-tetramethylcyclobutyl)-6-(4-(2-(2-(((S)-1-((2S,4R)-4-hydroxy-2-(((R)-(4-(4-methylthiazol-5-yl)phenyl)(oxetan-3-yl)methyl)carbamoyl)pyrrolidin-1-yl)-3,3-dimethyl-1-oxobutan-2-yl)amino)-2-oxoethoxy)ethyl)pipera-zin-1-yl)nicotinamide], for which the DC50 (VCaP cells, Table 36) was over 501 nM. Moreover, the Dmax under setting [1] is under 25%.
On the same counts, the results for `Cc1ncsc1-c1ccc([C@@H](NC(=O)[C@@H]2C[C@@H](O)CN2C(=O)C(NC(=O)COCCN2CCN(c3ccc(C(=O)N[C@H]4C(C)(C)[C@H](Oc5ccc(C#N)c(C(F)(F)F)c5)C4(C)C)cn3)CC2)C(C)(C)C)C2COC2)cc1` (stereo partly drawn) [Example 705, N-((1r,3r)-3-(4-cyano-3-(trifluoromethyl)phenoxy)-2,2,4,4-tetramethylcyclobutyl)-6-(4-(2-(2-(((S)-1-((2S,4R)-4-hydroxy-2-(((S)-(4-(4-methylthiazol-5-yl)phenyl)(oxetan-3-yl)methyl)carbamoyl)pyrrolidin-1-yl)-3,3-dimethyl-1-oxobutan-2-yl)amino)-2-oxoethoxy)ethyl)pipera-zin-1-yl)nicotinamide] are under 50 nM and 26 to 50%.
Take `Cc1ncsc1-c1ccc([C@H](C)NC(=O)[C@@H]2C[C@@H](O)CN2C(=O)[C@@H](NC(=O)CN2CCC(O[C@H]3C[C@H](Nc4ccc(C(=O)N[C@H]5C(C)(C)[C@H](Oc6ccc(C#N)c(Cl)c6)C5(C)C)cc4F)C3)CC2)C(C)(C)C)cc1` [Example 706, (2S,4R)-1-((S)-2-(2-(4-((1R,3S)-3-((4-(((1r,3R)-3-(3-chloro-4-cyanophenoxy)-2,2,4,4-tetramethylcyclobutyl)carbamoyl)-2-fluorophenyl)amino)cyclobutoxy)piperidin-1-yl)acetamido)-3,3-dimethylbutanoyl)-4-hydroxy-N-((S)-1-(4-(4-methylthiazol-5-yl)phenyl)ethyl)pyrrolidine-2-carboxamide]: the DC50 (VCaP cells, Table 36) is under 50 nM. Under “read-out: VCaP Dmax (%), VCaP cells, Table 36”, the Dmax is over 71%.
Consider `CO[C@@H]1C[C@@H](C(=O)N[C@@H](C)c2ccc(-c3scnc3C)cc2)N(C(=O)[C@@H](NC(=O)CN2CCN(CCCc3ccc(C(=O)N[C@H]4C(C)(C)[C@H](Oc5ccc(C#N)c(C(F)(F)F)c5)C4(C)C)cc3)CC2)C(C)(C)C)C1` [Example 708, (2S,4R)-1-((S)-2-(2-(4-(3-(4-(((1r,3r)-3-(4-cyano-3-(trifluoromethyl)phenoxy)-2,2,4,4-tetramethylcyclobutyl)carbamoyl)phenyl)propyl)piperazin-1-yl)acetamido)-3,3-dimethylbutanoyl)-4-methoxy-N-((S)-1-(4-(4-methylthiazol-5-yl)phenyl)ethyl)pyrrolidine-2-carboxamide], for which the DC50 (VCaP cells, Table 36) is over 501 nM. For the same molecule, the Dmax (read-out: VCaP Dmax (%)) was under 25%.
